Assay results reported in US20250345350A1, “TREATING PAIN ASSOCIATED WITH CENTRAL SENSITIZATION” (Medicon Pharmaceuticals, Inc., priority 2022, published 2025).
Like-named read-outs stand apart in the source and are kept apart here.

Experiments:
[1] = tested on: STZ-induced central sensitization in Sprague-Dawley rats; assay: PWT (von Frey), streptozotocin rat model of central sensitization (Example 4); format: in vivo; conditions: week 7; PS 8% hydrogel to both hind paws 3 times a day for 3 weeks from week 4 after STZ
Method: Sprague-Dawley rats were fasted for 4-6 hours before being injected intraperitoneally with 45 mg/kg STZ. This was performed for all experimental groups, except the naive group. In order to prevent hypoglycaemic death, rats received 10% sucrose water as the sole water source for the first 48 hours after injection. In order to ensure only those rats considered diabetic (i.e., having non-fasting plasma glucose levels of >250 mg/dL) were included in the study, blood glucose was measured at 72 hours after the STZ injection.
Four weeks after STZ injection, the rats were randomised into treatment groups. This delay between STZ injection and treatment allows the establishment of chronic pain (allodynia) associated with central sensitization. […] 5% lidocaine cream (positive control) was applied only once to both hind paws of the rats 30 minutes before measurement of PWT.
The rats were split into 8 study groups, with those in the experimental groups (1-4) having an average body weight of about 225 g, and those in the control groups (5-8) having an average body weight of about 335 g, as follows: • 1. Group 1: naive rats (n=5) • 2. Group 2: STZ only (n=6) • 3. Group 3: STZ plus vehicle (n=6) • 4. […] Group 5: STZ plus oral vehicle (n=8) • 6. Group 6: STZ plus 0.7% sulindac hydrogel (n=7) • 7. Group 7: STZ plus 5% lidocaine cream (n=8) • 8.

[2] = tested on: PHN induced by HSV-1 KOS strain virus in BALB/c mice; assay: PWT (von Frey), HSV-1 mouse model of PHN, topical (Example 20); format: in vivo
Method: PHN was induced in mice by infecting them with the HSV-1 KOS strain virus and following established protocols (Ou et al, Front Immunol, 14, 1026269, 2023; Takasaki et al, Anesthesiology, 96(5), 1168-74, 2002).
; Reckitt Benckiser). Three days later, HSV-1 (10^6 PFUs in 20 μl PBS) was inoculated on the shin of the right hind paw (5×5 mm) after scarification with sandpaper. The virus was applied directly to the scarified area. The contralateral hind paw was without inoculation. Mock infection was performed using the same virus inactivated by heating at 60° C. for 1 h.
. Group 1: sham inoculated (n=5-7) • 2.
In a second experiment, the effect of the parent compound, sulindac, was tested in the same mouse model. Five days post-inoculation, sulindac (as a 5% gel), or vehicle control were administered topically onto both hind paws of mice three times a day for three days.
. Group 1: vehicle control (n=5-7) • 2. Group 2: sulindac 5% (n=5-7)

[3] = Pharmacokinetics and biodistribution after topical PS 8% ointment to hind paws (Example 25); format: in vivo, mouse; conditions: normal mice, topical PS 8% ointment to hind paws; for AUC(0-t) / Cmax / half-life: mouse, in vivo, topical or ocular, 50 μl per paw of PS 8% ointment; for AUC(0-t): read-out: AUC0-24 h; for Cmax: read-out: Cmax, mean ± SEM
Method: At 0.5, 1, 3, 5, 12, 18, and 24 h, mice (n=4-5 mice/time point) were euthanized with CO2 inhalation. Blood was drawn immediately after death. Tissues, including paw skin, paw muscle, leg muscle, the sciatic nerve and lumbar DRG bilaterally were dissected quickly, immediately frozen in liquid nitrogen and stored at −80° C. until analyzed.

[4] = PS and metabolites in proximal and distal half of the sciatic nerve (Example 25); format: in vivo, mouse; conditions: mice with paclitaxel-induced PN, PS 8% ointment 3x/d for 2 wks, 30 min after last dose; for concentration at 30 min: mouse, in vivo, 8 % PS ointment, 3×/d
Method: In a separate experiment we studied 8 mice with paclitaxel-induced PN treated with PS 8% ointment 3×/d for 2 wks. Mice were euthanized as above 30 minutes after the last dose of PS. From these mice we harvested both sciatic nerves dividing each into proximal and distal halves, and combined the corresponding halves of every two animals for assay of drug levels.

[5] = Pharmacokinetics and biodistribution after 3% PS gel on outer surface of eyelid (Example 26); format: in vivo, rabbit; conditions: male, New Zealand White, rabbit, rabbits, 3% PS gel on outer surface of upper eyelids; for Cmax / half-life / AUC(0-t): topical or ocular; for AUC(0-t): read-out: AUC0-24 h; for concentration at 0.5 h / concentration at 1 h / concentration at 2 h / concentration at 4 h / concentration at 8 h / concentration at 24 h: topical, read-out: Amount in tissue, Mean ± SEM
Method: The pharmacokinetics and biodistribution of 3% PS gel applied to the outer surface of both upper eyelids was studies in male New Zealand White rabbits.
Eyelid and tissues of the globe were dissected and frozen quickly in liquid nitrogen until the levels of PS and its metabolites were determined by HPLC as described Xie et al. (Br J Pharmacol (2012);165:2152-66).

[6] = tested on: paclitaxel-induced central sensitization in C57/BL/6J mice; conditions: day 14
Method: Regarding the treatment with lidocaine: 5% lidocaine cream (a positive control) was applied once to both hind paws of the mice 30 minutes before measurement of PWT.
Briefly, for mechanical allodynia, pain threshold responses were measured using the well-established method of von Frey filaments in line with that performed in the earlier Examples. The PWT test was performed on day-8 (before the first dose of paclitaxel), the day of starting treatment (day 0, at which central sensitization was fully established) and day 14 (treatment continued until day 15). The mechanical threshold, expressed as g, indicates the force of the von Frey filament to which the animal reacted.

[7] = tested on: NTG-induced chronic migraine in mice; assay: PWT (von Frey), NTG-induced chronic migraine model, oral (Example 16)
Method: In particular, mice receive sublingual NTG 0.4 mg in the form of a finely crushed 0.4 mg NTG tablet (Greenstone Brand) every two days, receiving a total of five doses. For control mice, an NTG placebo (Practi-Nitroglycerin Sublingual 0.4 mg Simulated Medication tablet) was administered in the same way.
Group 1: placebo NTG (i.e, no NTG treatment, n=8) • 2. Group 2: NTG (n=8) • 3. Group 3: NTG+vehicle (n=8) • 4. […] Group 5: NTG+sulindac (n=8)
Mechanical allodynia was determined using von Frey filaments in line with that performed in the earlier Examples. The PWT test was performed prior to NTG (or placebo NTG) administration to determine baseline values, as indicated. […] The mechanical threshold, expressed as g, indicates the force of the von Frey filament to which the animal reacted.

[8] = tested on: NTG-induced migraine in C57BL/6J mice; assay: PWT (von Frey), NTG-induced migraine mouse model, topical (Example 13)
Method: Specifically, instead of the intraperitoneal injection of NTG, a finely crushed 0.4 mg NTG tablet (Greenstone Brand) was administered sublingually. As a control, a Practi-Nitroglycerin Sublingual 0.4 mg Simulated Medication tablet was used.
For determining mechanical allodynia, pain threshold responses were measured using the well-established method of von Frey filaments in line with that performed in the earlier Examples.
The PWT test, assessing mechanical allodynia, was performed 30 minutes after treatment. The mechanical threshold, expressed as g, indicates the force of the von Frey filament to which the animal reacted.

For `CCOP(=O)(OCC)OCCCCOC(=O)CC1=C(C)/C(=C/c2ccc([S+](C)[O-])cc2)c2ccc(F)cc21` (centres unmarked) [PS, phosphosulindac], the “PWT, gm Mean ± SEM” value [1] was 22.5 ± 2.20 gm, the “PWT, g Mean ± SEM” value ([2]; Post-inoculation, day 5 (before treatment)) was 0.53 ± 0.06 g and the “PWT, g Mean ± SEM” value ([2]; Post-treatment, PS 5% gel on both hind paws three times a day for three days) was 0.93 ± 0.06 g. For the same molecule, the “PWT, g Mean ± SEM” value ([2]; Pre-inoculation) was 1.27 ± 0.19 g, the AUC(0-t) ([3]; DRG (dorsal root ganglia)) was 4.5 µM·h and the Cmax ([3]; DRG (dorsal root ganglia)) was 300 ± 100 nM. The half-life ([3]; SN (sciatic nerve)) was 57.4 h, the AUC(0-t) ([3]; SN (sciatic nerve)) was 12 µM·h and the Cmax ([3]; SN (sciatic nerve)) was 900 ± 100 nM. It also gave a half-life ([3]; leg muscle) of 20.6 h, an AUC(0-t) ([3]; leg muscle) of 172 µM·h and a Cmax ([3]; leg muscle) of 35000 ± 3600 nM. The half-life ([3]; paw muscle) was 11.4 h, the AUC(0-t) ([3]; paw muscle) was 411 µM·h and the Cmax ([3]; paw muscle) was 102000 ± 4600 nM. The half-life ([3]; paw skin) was 16.1 h, the AUC(0-t) ([3]; paw skin) was 1610 µM·h and the Cmax ([3]; paw skin) was 195000 ± 5300 nM. The “detection in the systemic circulation” value [3] was “no PS was detected”, the “Distal half of sciatic nerve, mean ± SEM” value [4] was 17.0 ± 5.1 µM and the “Proximal half of sciatic nerve, μM, mean ± SEM” value [4] was 0.9 ± 0.3 µM. For the same molecule, the concentration at 30 min ([4]; read-out: Distal half of sciatic nerve, mean ± SEM) was 17 ± 5.1 µM, the concentration at 30 min ([4]; read-out: Proximal half of sciatic nerve, μM, mean ± SEM) was 0.9 ± 0.3 µM and the Cmax ([5]; conjunctiva) was 5800 nM. It also gave a half-life ([5]; conjunctiva) of 5.7 h, an AUC(0-t) ([5]; conjunctiva) of 58.6 ± 0.9 µM·h and a Cmax ([5]; cornea) of 1800 nM. The half-life ([5]; cornea) was 23 h, the AUC(0-t) ([5]; cornea) was 6.4 ± 0.4 µM·h and the Cmax ([5]; eyelid) was 14200 nM. For the same molecule, the half-life ([5]; eyelid) was 14.4 h, the AUC(0-t) ([5]; eyelid) was 45.2 ± 0.5 µM·h and the concentration at 0.5 h ([5]; AH (aqueous humor)) was 0 nM. It also gave a concentration at 1 h ([5]; AH (aqueous humor)) of 0 nM, a concentration at 2 h ([5]; AH (aqueous humor)) of 0 nM and a concentration at 4 h ([5]; AH (aqueous humor)) of 0 nM. The concentration at 8 h ([5]; AH (aqueous humor)) was 0 nM, the concentration at 24 h ([5]; AH (aqueous humor)) was 0 nM and the concentration at 0.5 h ([5]; conjunctiva) was 1300 ± 100 nM. For the same molecule, the concentration at 1 h ([5]; conjunctiva) was 1800 ± 300 nM, the concentration at 2 h ([5]; conjunctiva) was 400 ± 100 nM and the concentration at 4 h ([5]; conjunctiva) was 6100 ± 3300 nM. For the same molecule, the concentration at 8 h ([5]; conjunctiva) was 3400 ± 1400 nM, the concentration at 24 h ([5]; conjunctiva) was 500 ± 400 nM and the concentration at 0.5 h ([5]; cornea) was 1800 ± 900 nM. It also gave a concentration at 1 h ([5]; cornea) of 1300 ± 200 nM, a concentration at 2 h ([5]; cornea) of 1400 ± 100 nM and a concentration at 4 h ([5]; cornea) of 500 ± 100 nM. For the same molecule, the concentration at 8 h ([5]; cornea) was 1100 ± 600 nM, the concentration at 24 h ([5]; cornea) was 0 nM and the concentration at 0.5 h ([5]; eyelid) was 8300 ± 2200 nM. For the same molecule, the concentration at 1 h ([5]; eyelid) was 14200 ± 5300 nM, the concentration at 2 h ([5]; eyelid) was 2000 ± 500 nM and the concentration at 4 h ([5]; eyelid) was 3500 ± 1900 nM. For the same molecule, the concentration at 8 h ([5]; eyelid) was 200 ± 200 nM, the concentration at 24 h ([5]; eyelid) was 1800 ± 1300 nM and the concentration at 0.5 h ([5]; vitreous) was 0 nM. For the same molecule, the concentration at 1 h ([5]; vitreous) was 0 nM, the concentration at 2 h ([5]; vitreous) was 0 nM and the concentration at 4 h ([5]; vitreous) was 0 nM. For the same molecule, the concentration at 8 h ([5]; vitreous) was 0 nM, the concentration at 24 h ([5]; vitreous) was 0 nM and the “PWT, g Mean ± SEM” value ([6]; PS 1.2% (equimolar to sulindac 0.7%) 3 times a day) was 0.98 ± 0.06 g. For the same molecule, the “PWT, g Mean ± SEM” value ([6]; PS hydrogel 5% or 0.7% sulindac 3 times a day, 5% lidocaine cream once 30 min before, pregabalin 10 mg/kg orally once 1 h before) was 1.24 ± 0.07 g, the “PWT, g Mean ± SEM” value ([7]; Baseline, prior to NTG administration) was 2.28 ± 0.34 g and the “PWT, g Mean ± SEM” value ([7]; Day 11, orally once a day for 11 days concurrent with NTG, PS 50 mg/kg, sulindac 33 mg/kg) was 1.18 ± 0.10 g. For the same molecule, the “PWT Post-treatment Mean ± SEM” value ([8]; 30 min after treatment, PS 8% gel or sulindac 5.3% (in DMSO) on both hind paws 30 min after NTG) was 1.00 ± 0.12 g and the “PWT Baseline Mean ± SEM” value ([8]; baseline of the group, before NTG and treatment) was 1.72 ± 0.10 g.
